According to patent US20250320215A1, “SALTS OF N-[4-(4-[[2-(DIMETHYLAMINO)ETHYL]AMINO]-3-METHYL-1H-PYRAZOLO[3,4-D]PYRIMIDIN-6-YL)-2-FLUOROPHENYL]-2,5-DIFLUOROBENZENESULFONAMIDE AND CRYSTALLINE FORMS THEREOF” (THRYV THERAPEUTICS INC, priority 2022, published 2025):
Like-named read-outs stand apart in the source and are kept apart here.

Key:
Format in all cases: physicochemical
[1] = Water activity study (competition of forms, XRPD); conditions: for XPRD results, Form: room temperature
Protocol: Water activity study was performed using Compound 3 Form B (anhydrate) as the input material in EtOH/Water with different water content at RT. About 5 mg of Compound 3, Form B was used to prepare saturated solutions and the solutions were filtered by syringe at RT. 5 mg of Compound 3, Form D were added in the 1 mL of filtrate, and the suspension was slurried at RT for 3 and 7 days. The solids collected after filtration were analyzed by XRPD.
Protocol: excess amount of Compound 4 Form B was used to prepare saturated solutions. 6-8 mg each of Compound 4 Form B and Form D were added in the solutions. The suspension was slurried at room temperature for the corresponding times. Residual solids were collected by filtration with syringe filter, and characterized by XRPD.

[2] = Competitive slurry experiment evaluated by XRPD
Excerpt: Competitive slurry experiment for Compound 4 Form B and Form D Competitive slurry experiments of Compound 4 Form B and Form D were set up to verify the relative stability relationship. It was supposed that Form D was the stable form at high water activity, while Form B was stable at low water activity. All the solvents used was analytical grade and should contained trace amounts of water. […] The water activity at elevated temperature is lower than at low temperature. Therefore, Form B was obtained in ACN at 50° C., while Form D was the stable form at room temperature.

[3] = Thermal treatment (heat-cool cycle by DSC, XRPD of resulting solids)
Protocol: Compound 3, Form E was treated with heat-cool cycle by DSC. The resulted solids were characterized by XRPD. Compound 3, Form E, was converted to Compound 3, Form D after desolvation.
Compound 4 Form B was treated with heat-cool cycle by DSC. The resulted solids were checked by XRPD. […] The water was excluded at elevated temperature, then entered in the crystal lattice again at room temperature.
Compound 4 Form C and trace Form B was treated with heat-cool cycle by DSC. The resulted solids were checked by XRPD. The sample was converted to low crystalline (LC) Form B after heating to 175° C.
Compound 4 Form D was treated with heat-cool cycle by DSC. The resulted solids were checked by XRPD. The sample kept unchanged after heating to 140° C., but was converted to a new low crystalline form after heating to 210° C. which was assigned to Form F.

[4] = Estimated solubility by solvent addition method via visual assessment; conditions: thermodynamic from solid, read-out: Solubility, Concentration
Protocol: Solubility of Compound 3 Form B was estimated in 30 solvents at room temperature and in 9 organic solvents at 70° C. using solvent addition method via visual assessment.
Protocol: about 3 mg of Compound 3 Form B was weighed into a sample vial and the solvent was added gradually with vortex until the drug solution was clear by observation or a total of 2 mL solvent was added. Then, the estimated solubility (mg/mL) was calculated.
Solubility of Compound 4, Form B was estimated in 18 solvents at room temperature using solvent addition method via visual assessment. About 3 mg of Compound 4, Form B was weighed into a sample vial and the solvent was added gradually with vortex until the solution was clear by observation or a total of 2 mL solvent was added. Then, the estimated solubility (mg/mL) was calculated.

[5] = Slurry study evaluated by XRPD
Protocol: About 20 mg of Compound 3, Form B was weighed into a sample vial and then 1 mL of solvent was added to make a suspension. The suspension was stirred at room temperature or 50° C. for 3 days and 11 days. Then, the wet solid was collected by filtration and analyzed by XRPD.
20-30 mg of Compound 4 Form B was added in 1 mL of selected solvents at room temperature or 50° C. The suspension was slurried at room temperature or 50° C. for 3 days and 11 days. The wet solids collected from filtration were examined by XRPD. There were four crystal forms obtained by slurrying, including di-mesylate Forms B, C and D as well as mono-mesylate Form G.

[6] = slurry at 50° C., printed at MeOH

## Cc1n[nH]c2nc(-c3ccc(NS(=O)(=O)c4cc(F)ccc4F)c(F)c3)nc(NCCN(C)C)c12 [Compound 4 Forms B + D]
[1]; ACN/water, aW 0.37, 8 d
  XPRD results, Form: Form D
[1]; ACN/water, aW 0.37, 14 d
  XPRD results, Form: Form D
[1]; ACN/water, aW 0.58, 8 d
  XPRD results, Form: Form D
[1]; ACN/water, aW 0.58, 14 d
  XPRD results, Form: Form D
[1]; ACN/water, aW 0.78, 8 d
  XPRD results, Form: Form D
[1]; ACN/water, aW 0.78, 14 d
  XPRD results, Form: Form D
[1]; ACN/water, aW 0.90, 8 d
  XPRD results, Form: Form D
[1]; ACN/water, aW 0.90, 14 d
  XPRD results, Form: Form D
[1]; MeOH/water, aW 0.08, 3 d
  XPRD results, Form: Forms B + D
[1]; MeOH/water, aW 0.08, 7 d
  XPRD results, Form: Form B
[1]; MeOH/water, aW 0.16, 3 d
  XPRD results, Form: Form D
[1]; MeOH/water, aW 0.16, 7 d
  XPRD results, Form: Form D
[2]; ACN, 50° C.
  Results 8 d (XRPD): Form B
  Results 14 d (XRPD): Form B
[2]; ACN, RT
  Results 8 d (XRPD): Form B + Form D
  Results 14 d (XRPD): Form D
[2]; IPAC, 50° C.
  Results 8 d (XRPD): Form D
  Results 14 d (XRPD): Form D
[2]; IPAC, RT
  Results 8 d (XRPD): Form D
  Results 14 d (XRPD): Form D
[2]; MeOH, 50° C.
  Results 8 d (XRPD): Form B
  Results 14 d (XRPD): Form B
[2]; MeOH, RT
  Results 8 d (XRPD): Form B
  Results 14 d (XRPD): Form B

## Cc1n[nH]c2nc(-c3ccc(NS(=O)(=O)c4cc(F)ccc4F)c(F)c3)nc(NCCN(C)C)c12 [Compound 4 Form C + trace Form B]
[3]; Heated to 175° C. at 10° C./min, and cooled to 25° C. at 5° C./min
  XRPD Resulting Form: Form B (LC)

## Cc1n[nH]c2nc(-c3ccc(NS(=O)(=O)c4cc(F)ccc4F)c(F)c3)nc(NCCN(C)C)c12.Cl [Compound 3 Form E]
[3]; Heated to 114° C. at 10° C./min, and cooled to 25° C. at 5° C./min
  XRPD Resulting Form: Form E
[3]; Heated to 160° C. at 10° C./min, and cooled to 25° C. at 5° C./min
  XRPD Resulting Form: Form D

## Cc1n[nH]c2nc(-c3ccc(NS(=O)(=O)c4cc(F)ccc4F)c(F)c3)nc(NCCN(C)C)c12.Cl [Compound 3 Form B + D]
[1]; EtOH/Water 24.7/75.3 (V/%), aW 0.92, RT
  XPRD results 3 D/Wet, 7 D/Wet, 7 D/Dried: Form D + extra peak
[1]; EtOH/Water 58.1/41.9 (V/%), aW 0.82, RT
  XPRD results 3 D/Wet, 7 D/Wet, 7 D/Dried: Form D + extra peak
[1]; EtOH/Water 82.9/17.1 (V/%), aW 0.64, RT
  XPRD results 3 D/Wet, 7 D/Wet, 7 D/Dried: Form D
[1]; EtOH/Water 92.8/7.2 (V/%), aW 0.41, RT
  XPRD results 3 D/Wet, 7 D/Wet, 7 D/Dried: Form D
[1]; EtOH/Water 97/3 (V/%), aW 0.21, RT
  XPRD results 3 D/Wet, 7 D/Wet, 7 D/Dried: Form D
[1]; EtOH/Water 98.4/1.6 (V/%), aW 0.12, RT
  XPRD results 3 D/Wet, 7 D/Wet, 7 D/Dried: Form D

## Cc1n[nH]c2nc(-c3ccc(NS(=O)(=O)c4cc(F)ccc4F)c(F)c3)nc(NCCN(C)C)c12.Cl [Compound 3 Form B]
[4]; aqueous with cosolvent or surfactant or cyclodextrin, Acetone/Water (1/1), RT
  solubility: < 1500 µg/mL
[4]; organic solvent or mixture, 1,4-Dioxane, RT
  solubility: < 1500 µg/mL
[4]; organic solvent or mixture, 2-Me-THF, RT
  solubility: < 1500 µg/mL
[4]; organic solvent or mixture, ACN, RT
  solubility: < 1500 µg/mL
[4]; organic solvent or mixture, ACN/Water (9/1), RT
  solubility: 1500 to 1700 µg/mL
[4]; organic solvent or mixture, Acetic acid, 70° C.
  solubility: < 1500 µg/mL
[4]; organic solvent or mixture, Acetic acid, RT
  solubility: < 1500 µg/mL
[4]; organic solvent or mixture, Acetone, 70° C.
  solubility: < 1500 µg/mL
[4]; organic solvent or mixture, Acetone, RT
  solubility: < 1500 µg/mL
[4]; organic solvent or mixture, Acetone/MeOH (1/1), RT
  solubility: 1500 to 1600 µg/mL
[4]; organic solvent or mixture, Benzyl alcohol, 70° C.
  solubility: < 1500 µg/mL
[4]; organic solvent or mixture, Benzyl alcohol, RT
  solubility: < 1500 µg/mL
[4]; organic solvent or mixture, DCM, RT
  solubility: < 1500 µg/mL
[4]; organic solvent or mixture, DCM/MeOH (3/1), RT
  solubility: < 1500 µg/mL
[4]; organic solvent or mixture, DMA, 70° C.
  solubility: 20000 to 40000 µg/mL
[4]; organic solvent or mixture, DMA, RT
  solubility: 3000 to 3300 µg/mL
[4]; organic solvent or mixture, DMF, 70° C.
  solubility: 16700 to 20000 µg/mL
[4]; organic solvent or mixture, DMF, RT
  solubility: 2000 to 3000 µg/mL
[4]; organic solvent or mixture, DMSO, 70° C.
  solubility: > 40000 µg/mL
[4]; organic solvent or mixture, DMSO, RT
  solubility: 5400 to 5500 µg/mL
[4]; organic solvent or mixture, EA, RT
  solubility: < 1500 µg/mL
[4]; organic solvent or mixture, EtOH, 70° C.
  solubility: < 1500 µg/mL
[4]; organic solvent or mixture, EtOH, RT
  solubility: < 1500 µg/mL
[4]; organic solvent or mixture, IPA, RT
  solubility: < 1500 µg/mL
[4]; organic solvent or mixture, IPAC, RT
  solubility: < 1500 µg/mL
[4]; organic solvent or mixture, IPE, RT
  solubility: < 1500 µg/mL
[4]; organic solvent or mixture, MEK, RT
  solubility: < 1500 µg/mL
[4]; organic solvent or mixture, MIBK, RT
  solubility: < 1500 µg/mL
[4]; organic solvent or mixture, MTBE, RT
  solubility: < 1500 µg/mL
[4]; organic solvent or mixture, Me-cyclohexane, RT
  solubility: < 1500 µg/mL
[4]; organic solvent or mixture, MeOH, RT
  solubility: < 1500 µg/mL
[4]; organic solvent or mixture, MeOH/Water (9/1), RT
  solubility: 2500 to 3000 µg/mL
[4]; organic solvent or mixture, NMP, 70° C.
  solubility: > 40000 µg/mL
[4]; organic solvent or mixture, NMP, RT
  solubility: 3000 to 3800 µg/mL
[4]; organic solvent or mixture, THF, 70° C.
  solubility: < 1500 µg/mL
[4]; organic solvent or mixture, THF, RT
  solubility: < 1500 µg/mL
[4]; organic solvent or mixture, THF/Water (9/1), RT
  solubility: 1600 to 1900 µg/mL
[4]; organic solvent or mixture, n-Heptane, RT
  solubility: < 1500 µg/mL
[4]; Water, RT
  solubility: < 1500 µg/mL
[5]; [6]
  XRPD Day 3/Wet: Form D
  XRPD Day 11/Wet: Form D
[5]; slurry at RT, 1,4-Dioxane 1 mL, cell apparently merged down for IPA, IPAC, MTBE, Water, n-Heptane, Acetone, EA, ACN, DCM, MIBK, MEK
  XRPD Day 3/Wet: Form D
[5]; slurry at RT, EtOH 1 mL
  XRPD Day 3/Wet: Form D
[5]; slurry at RT, MeOH 1 mL
  XRPD Day 3/Wet: Amorphous
[5]; slurry at RT, THF 1 mL
  XRPD Day 3/Wet: Amorphous
[5]; slurry at RT, printed at MeOH
  XRPD Day 11/Wet: Form D
